# Data from patent publication US20160058006A1, “COMPOSITIONS AND METHODS FOR ATTRACTING STINK BUGS” (BEDOUKIAN RESEARCH, INC., priority 2014, published 2016).
# Tests used:
# [1] = tested on: individual sensillum (olfactory receptor neurons) on the brown marmorated stink bug antenna; assay: electrophysiological recording from an individual antennal sensillum in response to an olfactory stimulus; design: species or system Halyomorpha halys; settings: 2 second stimulus, 100 μg dosage load in ethanol, versus 2 second control stimulus; FIG. 3
# Description: Many aspects of insect behavior are mediated by olfactory signals. These olfactory signals are detected by sensory structures called sensilla which are innervated by olfactory receptor neurons and are located on various parts of the insect body including the antenna, mouthparts and tarsi. It is possible to determine the capabilities of the peripheral sensory system by using electrophysiology methods. Basically, extracellular neural responses from the individual receptor neurons located in the sensilla on the antenna of the stinkbug can be electrically recorded in response to stimulation with various concentrations of olfactory odorants.
# Details of the recording methodology for insects have been described previously. […] The action potentials within this sensillum can then be monitored and recorded. […] Electrical signals obtained from the neurons within the sensillum are band-passed filtered (300-3K Hz), amplified (1000×) and analyzed using commercial software, Autospike (Syntech, Hilversum, The Netherlands). […]
# FIG. 3 represents screen shots of the analysis of the above trace (FIG. 2) from the software that used to analyze the electrophysiological data. […] In the histograms, each bar represents the number of impulses calculated for a metric of impulse size.
# [2] = tested on: brown marmorated stink bug; settings: cited from earlier work
Compound,number of impulses (activity) in stimulus histogram compared to control histogram [1],attraction by itself ([2]; early season trials),cross-attraction of the brown marmorated stink bug ([2]; in vivo),attraction of adults ([2]; late in the season)
"ethyl (2E,4E,6Z)-decatrienoate",more activity in the bottom stimulus histogram as compared to the top control histogram,,,
"CCC\C=C/C=C/C=C/C(=O)OC [methyl (2E,4E,6Z)-decatrienoate]",,not attractive by itself,cross-attractive,reliably attracted
